According to patent US10065965B2, “Imidazo[1,2-B][1,2,4]triazine derivatives as antiparasitic agents” (GlaxoSmithKline Intellectual Property Development Limited, priority 2015, dated 2018):
Converted amounts (≈) assume the structure as drawn.

Columns and labels:
[1] = system: Leishmania donovani; test: Assay 1 intramacrophage Leishmania donovani assay (potency readout); type: cell-based; settings: amastigotes in PMA-treated THP-1 macrophages, 96 h, average number of amastigotes per cell, minimum threshold 4.3, read-out: pEC50 value against Leishmania donovani (converted)
Experimental: The intramacrophage Leishmania assay was performed using a modified version of the method described in De Rycker et al. (Antimicrob Agents Chemother. 2013 July; 57(7):2913-22. Comparison of a high-throughput high-content intracellular Leishmania donovani assay with an axenic amastigote assay. De Rycker M, Hallyburton I, Thomas J, Campbell L, Wyllie S, Joshi D, Cameron S, Gilbert I H, Wyatt P G, Frearson J A, Fairlamb A H, Gray D W.). Procedure: 350 nl of compound was pre-dispensed into 384 well sterile intermediary plates. For single point screening, amphotericin B was added to all wells of column 24 as a positive control (final concentration 2 μM) and DMSO to column 23. For potency determinations, ten-point, one in three dilution curves were created with the highest concentration being 50 μM and on each plate a control curve of amphotericin B was included. Controls were as follows: columns 11 and 12: DMSO, columns 23 and 24: amphotericin B (final concentration 2 μM). To the intermediary plates, 35 μl of THP-1 media was added and plates were shaken for >5 min to ensure complete mixing. THP-1 cells (8,000 per well, 50 μl) were plated into black clear-bottom 384 well plates (Corning) in presence of 20 nM PMA. After 20 min at RT, the plates were incubated at 37° C. under 5% CO2 in a humidified incubator for 75 h. The cells were then washed with […] sterile phosphate buffered saline (PBS) supplemented with 1 mM CaCl2, 0.5 mM MgCl2, 0.1% (w/v) bovine serum albumin (PBS-A) and amastigotes were added to all wells at a multiplicity of infection of 5 (40,000 amastigotes per well). After 40 min at RT, plates were returned to the incubator. Amastigotes were incubated in the presence of THP-1 macrophages for 16 h. Any remaining extracellular amastigotes were subsequently removed with an overflow wash of 1 mL PBS-A per well (wash buffer is being aspirated from the top of the well as it is being dispensed) followed by addition of 25 μl of the compound pre-dilutions using a Fluidx Ipette-pro pipetting station. The final dilution of each compound was 200-fold. Plates were incubated for 96 h and then washed (250 μl PBS-A) and fixed (4% (v/v) formaldehyde-PBS, 30 min, RT). After fixation, the wells were washed with 250 μl PBS, stained (10 μg/mL DAPI, 0.4 μg mL-1 HCS Cellmask Deep Red in PBS+0.1% (v/v) Triton X-100, 30 min, RT) and washed with 250 μl PBS. Finally, PBS+0.05% (v/v) thimerosal was added to the wells, the plates were sealed and imaged on a high-content microscope (GE IN Cell 2000) using a 10× objective. Image analysis was carried out with GE IN Cell Analyzer 1000 Workstation using the “Multi Target Analysis” module. Settings for segmentation were as follows: nuclei: minimum area: 142.384 μm2, sensitivity: 81, method: top-hat; cells: characteristic area: 2500 μm2, sensitivity: 60, method: multiscale top-hat; organelles (amastigotes): granule size 1-3, 3 scales, sensitivity: 90, detection in entire cell. For each well, i) THP-1 cell count (cytotoxicity readout) and ii) average number of amastigotes per cell (potency readout) were calculated, both in terms of pEC50 values.

[2] = Assay 1 intramacrophage Leishmania donovani assay, THP-1 cell count (cytotoxicity readout); type: cell-based; settings: human, minimum threshold 4.3, read-out: cytotoxicity against THP-1 cells, pEC50 value (converted)
Method in brief: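 THP-1 cells were differentiated with 20 nM PMA for 75 h, infected with amastigotes at MOI 5 for 16 h, then exposed to compound for 96 h in a ten-point 1:3 series from a 50 μM top concentration. Cells were fixed, DAPI/CellMask-stained and imaged by high-content microscopy. pEC50 was derived from amastigotes per cell and from THP-1 count.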

[3] = Assay 4 solubility assay, ChemiLuminescent Nitrogen Detection (CLND); type: physicochemical; settings: phosphate buffered saline, pH 7.4, aqueous buffer, kinetic from dmso stock, pH 7.4 PBS, from 10 mM DMSO stock, 1 h at room temperature
Method in brief: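 Kinetic solubility: 10 mM DMSO stock diluted 5 µl into 100 µl pH 7.4 PBS, incubated 1 h at room temperature, then filtered. Filtrate quantified by HPLC with chemiluminescent nitrogen detection against ondansetron and caffeine standards; solubility in µM by linear-regression calibration.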

`O=C(Nc1ccc(F)c(-c2cn3nc(N4CCOCC4)cnc3n2)c1)N1CCCC1` [Example 1, N-(4-fluoro-3-(2-morpholinoimidazo[1,2-b][1,2,4]triazin-6-yl)phenyl)pyrrolidine-1-carboxamide] showed an EC50 [1] of 631 nM, an EC50 at 96 h [2] of over 50100 nM and a solubility at 1 h [3] of 100 to 416 µM (≈ 41.1 to 171 µg/mL).
